Values quoted from earlier work in patent US20230157980A1, “METHODS FOR TREATING HEARING LOSS INCIDENT TO COCHLEAR IMPLANT SURGERY” (HOUGH EAR INSTITUTE, priority 2018, published 2023).

Tested on: hearing loss caused by cochlear implantation

CC(=O)N[C@@H](CS)C(=O)O [NAC, N-acetylcysteine]
hearing improvement (local NAC, 32 kHz, 4-week post insertion time point): barely significant hearing improvement | protective effect on hearing (local NAC, lower frequencies (below 32 kHz)): no protective effect | effect on improving hearing (local administration of NAC): only modest and transient effects
